Consider one compound from US20200109126A1 (priority 2017, published 2020).

Data set [1] deals with C57BL/6J mice. Briefly: Open field locomotor response. As to conditions: PZM21 20 mg/kg, morphine 10 mg/kg.
The subject of data set [2] is C57BL/6J mice. Briefly: Tail-flick assay. As to conditions: mouse, in vivo. For orientation: Hot-plate and tail-flick tests time the reaction to a heat stimulus.
For data set [3], the target named is μOR (Homo sapiens, UniProt P35372). Briefly: Calcium release (FLIPR). The class given is cell-based. On the set-up: expressed in transfected cells. As for the experimental part: Calcium release was measured using a FLIPR^TETRA fluorescence imaging plate reader (Molecular Devices). Calcium release experiments were run in parallel to Gi/o Glosensor experiments with the same HEKT cells transfected with μOR, except cells for FLIPR were plated in poly-lysine coated 384-well black clear bottom cell culture plates. Cells were incubated at 37° C. with 5% CO2 overnight, and next day, media was decanted and replaced with Fluo-4 direct calcium dye (Life Technologies) made up in HBSS with 20 mM HEPES, pH 7.4. Dye was incubated for 1 hour at 37° C. Afterwards, cells were equilibrated to room temperature, and fluorescence in each well was read for the initial 10 seconds to establish a baseline. Afterwards, 10 μL of drug (3×) was added per well and the maximum-fold increase in fluorescence was determined as fold-over-baseline. Drug solutions used for the FLIPR assay were exactly the same as used for Gi/o Glosensor experiments. To activate endogenous Gq-coupled receptors as a positive control for calcium release, TFLLR-NH2 (10 μM, PAR-1 selective agonist) was used.
Sequence of μOR (P35372 whole entry): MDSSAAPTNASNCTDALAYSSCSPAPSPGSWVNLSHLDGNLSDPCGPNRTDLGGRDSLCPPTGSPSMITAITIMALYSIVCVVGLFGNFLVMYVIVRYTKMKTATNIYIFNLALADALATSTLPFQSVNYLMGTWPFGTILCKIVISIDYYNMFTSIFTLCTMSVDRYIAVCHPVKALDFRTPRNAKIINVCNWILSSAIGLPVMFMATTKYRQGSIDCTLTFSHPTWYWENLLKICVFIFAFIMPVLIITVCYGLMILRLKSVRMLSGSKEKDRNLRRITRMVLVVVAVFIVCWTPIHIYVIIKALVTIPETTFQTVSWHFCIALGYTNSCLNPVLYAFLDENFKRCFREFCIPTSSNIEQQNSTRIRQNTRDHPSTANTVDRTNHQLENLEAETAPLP

Data set [4] concerns C57BL/6J mice. Briefly: Hot-plate analgesia.
Data set [5] relates to C57BL/6J mice. Briefly: Conditioned place preference. As to conditions: mouse, in vivo. As for the experimental part:
On day 1 (preconditioning day), mice were placed in the central chamber and allowed to explore freely for 30 minutes. Time spent in each compartment was used to estimate baseline chamber preferences and mice showing specific chamber bias more than 70% were not studied further. On days 2-9 (conditioning days) mice were injected with either vehicle or drug and paired with either the white mesh or the black rod chambers. All mice received vehicle on days 2, 4, 6, 8 and drug on days 3, 5, 7, 9. On day 10 (test day), mice were again placed in the central chamber as on day 1 and allowed to explore freely for 30 minutes. Time spent in each chamber was expressed as percentage preference.

“Also recorded” adds a separate entry of the source.

Regarding `C[C@@H](Cc1ccsc1)NC(=O)NC[C@H](Cc1ccc(O)cc1)N(C)C` [PZM21, 1-[(S)-2-(Dimethylamino)-3-(4-hydroxyphenyl)propyl]-3-((S)-1-(thiophen-3-yl)propan-2-yl)urea], the open field locomotion entry in data set [1] is reported as “does not induce open field locomotion; also recorded: no apparent effect on locomotion versus vehicle”. Further, the “analgesic effect in tail-flick assay” value in data set [2] was “no activity; also recorded: no analgesic effect”. Also, the calcium release result in data set [3] is recorded as “no activity was observed”. Besides, the duration of analgesia result in data set [4] (hot plate) is “up to 180 minutes”. Further, in data set [4] (hot plate, highest dose of drug tested, 15 minutes after administration), the “percent maximal possible effect (% MPE)” value is on record as 87%. The “analgesia in hot-plate assay (in words)” value in data set [4] (mouse, subcutaneous) is given as “dose-dependent analgesia”. For the same compound, the conditioned place preference entry in data set [5] is listed as “does not induce a conditioned place preference response”.
